{"source": "patent US20180051284A1", "about": "“INHIBITORS OF MIR-17-92 CLUSTER FOR ANTI-TUMOR ACTIVITY IN MULTIPLE MYELOMA AND OTHER MALIGNANCIES” (priority 2014, published 2018)", "assay_type_in_all_cases": "cell-based, Human", "key": {"panel of MM cell lines": {"tested_on": "panel of MM cell lines", "test": "CCK-8 cell growth analysis of a panel of MM cell lines after transfection", "conditions": "transfection 50-25-12,5 nM; up to 96 hours", "description": "(§1) 3×10^5 cells were transfected using Neon Transfection System (Invitrogen, Calif.,U.S.), (2 pulses at 1150, 30ms). The transfection efficiency evaluated by flow-cytometric analysis relative to a FAM dye—labeled anti-miR—negative control reached 85% to 90%.\nCells were seeded in 100 μL (suspension cell lines) or 50 μL (adherent cell lines) of culture medium at a density ranging from 0,5 to 2,5×10^3 cells per well. Survival was evaluated by both Cell Counting Kit-8 colorimetric assay (CCK-8, Dojindo Molecular Technologies, Japan) and CellTiter-Glo Luminescent Cell Viability Assay (Promega Madison, Wis., USA). Assays were performed according to the manufacturer's instructions. The optical density (OD) was evaluated at wave length of 450 nm. Both OD and luminescence were recorded with the GloMax-multi detection system (Promega, Madison, Wis., USA)."}, "AMO1 cells": {"tested_on": "AMO1 cells", "test": "Combination with proteasome inhibitors or melphalan, 7-AAD cell viability, combination index", "conditions": "for CI value of combination with Bortezomib / CI value of combination with Carfilzomib / CI value of combination with Melphalan: AMO1, 6 days", "description": "Bortezomib (PS-341, catalog n° S1013) and Carfilzomib (PR-171, catalog n°S2853) were purchased from Selleck. Combination between miR-17-92 LNA gapmer_06 and proteasome inhibitors was tested in AMO1 cells. 1×10^3 cells were plating in 96-well plates. Bortezomib was used at concentrations ranging from 2 nM to 3.5 nM. Carfilzomib was used at concentrations ranging from 0.4 to 0.7 nM. Measurement of synergistic index (SI) was determined with the following formula: SI=(effect induced by miR-17-92 LNA gapmers and proteasome inhibitors in combination)/effect of miR-17-92 LNA gapmers) +(effect of proteasome inhibitors). Interactions were considered synergistic when the SI was >1.\nMelphalan was purchased from Sigma Aldrich (catalog n°M2011). Combination between miR-17-92 LNA gapmer_06 and melphalan was tested in AMO1 cells. Cell number at plating was 1×10^3 in 96-well plates. Melphalan was used at concentrations ranging from 0.5 μM to 2 μM. Measurement of synergistic index (SI) was determined with the following formula: SI=(effect induced by miR-17-92 LNA gapmers and melphalan in combination)/(effect of miR-17-92 LNA gapmers)+(effect of melphalan). Interactions were considered synergistic when the SI was >1.\n(§2) 7-aminoactinomycin was used to evaluate cell viability. The staining was performed according to manufacturer's instructions.\nAMO1 cells were exposed for 6 days to LNA gapmers_06 or each of Bortezomib, Carfilzomib, Melphalan or to combinations of LNA gapmer_06 and each of these drugs.\nCells viability was calculated by flow cytometric analysis of 7-AAD staining and the percentage of living cell was compared to the untreated cells.\nIn Tables 3-5 tests with the respective combinations performed simultaneously are reported. The effect of LNA gapmer_06 was determined separately for Bortezomib, Carfilzomib, and Melphalan explaining the slightly different values. CI (combination index) values are shown (CI<1 synergism, CI=1 additive, […]). For each monotherapy different doses and combinations were tested. Combination index were calculated using the CalcuSyn software."}, "[1]": {"tested_on": "PTEN, AKT, ERK, E2F-1, p14/ARF-p53 and intrinsic apoptotic pathway proteins in NCI-H929 cells", "test": "Western blot analysis of molecular perturbations after gymnotic exposure", "description": "SDS-PAGE and Western Blotting (WB) were performed according to standard protocols. Briefly, cells were lysed by lysis buffer containing 15mM Tris/HCl pH 7.5, 120mM NaCl, 25mM KCI, 1mM EDTA, 0.5% Triton 100, Halt Protease Inhibitor Single-Use cocktail (100X, Thermo Scientific). Whole cells lysates (50 μg per lane) were separated using 4-12% Novex Bis-Tris SDS-acrylamide gels (Invitrogen), electro-transferred on Nitrocellulose membranes (Bio-Rad), and immunoblotted with the antibodies. Membranes were washed 3 times in PBS-Tween and then incubated with a secondary antibody conjugated with horseradish peroxidase in 0.5% milk for 2 hours at room temperature. Chemiluminescence was detected using Western Blotting Luminol Reagent (sc-2048, Santa Cruz, Dallas, Tex., USA). Signal intensity was quantified with the Quantity One Analyzing System (Bio-Rad).\nMiRNAs are a class of non coding RNAs that regulate gene expression at post-transcriptional levels. Each miRNA may regulate the expression of several (hundreds) genes. Since LNA/DNA gapmers inhibit the biogenisis of the six members of the miR-17-92 cluster, a wide perturbation in the expression of target genes is predictable. Therefore, we gymnotically exposed NCI-H929 cells for 6 days to gapmer_06 or scrambled controls and, by western blotting, we analyzed molecular perturbations at protein levels."}, "[2]": {"tested_on": "RPMI-8226, KMS-12-BM and NCI-H929 MM cells", "test": "AnnexinV/7-AAD staining apoptosis after transfection", "conditions": "transfection with 25 nM; 48 hours", "description": "as §1, §2"}, "[3]": {"conditions": "NCI-H929, 6 days gymnotic exposure, 2,5 μM"}}, "note": "l = locked nucleic acid (LNA); d = 2'-deoxy (DNA)"}
{"substance": "gapmer_06: LNA/DNA gapmer, SEQ ID 4 (14 mer): +T*+A*+C*T*T*G*C*T*T*G*G*+C*+T*+T; + LNA, * phosphorothioate (antisense TACTTGCTTGGCTT; sugars from the 5' end l3 d8 l3, all phosphorothioate, methylation of C not given here)", "values": [{"measurement": "anti-proliferative activity (CCK-8 assay)", "setting": "panel of MM cell lines", "result": "exerted anti-proliferative activity up to 96 hours after transfection in all myeloma cell lines tested"}, {"measurement": "interaction with Bortezomib to induce cell death", "setting": "AMO1 cells; AMO1 cells, 6 days, combination with Bortezomib", "result": "synergizes"}, {"measurement": "interaction with Carfilzomib to induce cell death", "setting": "AMO1 cells; AMO1 cells, 6 days, combination with Carfilzomib", "result": "synergizes"}, {"measurement": "interaction with Melphalan to induce cell death", "setting": "AMO1 cells; AMO1 cells, 6 days, combination with Melphalan", "result": "synergizes"}, {"measurement": "CI value of combination with Bortezomib", "setting": "AMO1 cells; Bortezomib 0.0035 μm + miR-17-92 LNA gapmer 0.5 μl", "result": 0.759}, {"measurement": "CI value of combination with Bortezomib", "setting": "AMO1 cells; Bortezomib 0.0035 μm + miR-17-92 LNA gapmer 0.75 μl", "result": 0.418}, {"measurement": "CI value of combination with Bortezomib", "setting": "AMO1 cells; Bortezomib 0.0035 μm + miR-17-92 LNA gapmer 1 μl", "result": 0.342}, {"measurement": "CI value of combination with Bortezomib", "setting": "AMO1 cells; Bortezomib 0.0035 μm + miR-17-92 LNA gapmer 1.25 μl", "result": 0.036}, {"measurement": "CI value of combination with Carfilzomib", "setting": "AMO1 cells; Carfilzomib 0.0004 μm + miR-17-92 LNA gapmer 1.25 μl", "result": 0.89}, {"measurement": "CI value of combination with Carfilzomib", "setting": "AMO1 cells; Carfilzomib 0.0005 μm + miR-17-92 LNA gapmer 1.25 μl", "result": 0.55}, {"measurement": "CI value of combination with Carfilzomib", "setting": "AMO1 cells; Carfilzomib 0.0006 μm + miR-17-92 LNA gapmer 1.25 μl", "result": 0.50}, {"measurement": "CI value of combination with Carfilzomib", "setting": "AMO1 cells; Carfilzomib 0.0007 μm + miR-17-92 LNA gapmer 1.25 μl", "result": 0.39}, {"measurement": "CI value of combination with Melphalan", "setting": "AMO1 cells; Melphala 1.5 μm + miR-17-92 LNA gapmer 0.5 μl", "result": 0.78}, {"measurement": "CI value of combination with Melphalan", "setting": "AMO1 cells; Melphala 1.5 μm + miR-17-92 LNA gapmer 0.75 μl", "result": 0.99}, {"measurement": "CI value of combination with Melphalan", "setting": "AMO1 cells; Melphala 1.5 μm + miR-17-92 LNA gapmer 1 μl", "result": 0.65}, {"measurement": "CI value of combination with Melphalan", "setting": "AMO1 cells; Melphala 1.5 μm + miR-17-92 LNA gapmer 1.25 μl", "result": 0.56}, {"measurement": "CI value of combination with Melphalan", "setting": "AMO1 cells; Melphala 1.75 μm + miR-17-92 LNA gapmer 0.5 μl", "result": 0.66}, {"measurement": "CI value of combination with Melphalan", "setting": "AMO1 cells; Melphala 1.75 μm + miR-17-92 LNA gapmer 0.75 μl", "result": 0.89}, {"measurement": "CI value of combination with Melphalan", "setting": "AMO1 cells; Melphala 1.75 μm + miR-17-92 LNA gapmer 1 μl", "result": 0.56}, {"measurement": "CI value of combination with Melphalan", "setting": "AMO1 cells; Melphala 1.75 μm + miR-17-92 LNA gapmer 1.25 μl", "result": 0.47}, {"measurement": "CI value of combination with Melphalan", "setting": "AMO1 cells; Melphala 2 μm + miR-17-92 LNA gapmer 0.5 μl", "result": 0.51}, {"measurement": "CI value of combination with Melphalan", "setting": "AMO1 cells; Melphala 2 μm + miR-17-92 LNA gapmer 0.75 μl", "result": 0.59}, {"measurement": "CI value of combination with Melphalan", "setting": "AMO1 cells; Melphala 2 μm + miR-17-92 LNA gapmer 1 μl", "result": 0.46}, {"measurement": "CI value of combination with Melphalan", "setting": "AMO1 cells; Melphala 2 μm + miR-17-92 LNA gapmer 1.25 μl", "result": 0.26}, {"measurement": "E2F-1 protein level (Western Blot)", "setting": "[1]; [3]", "result": "strongly up-regulated"}, {"measurement": "anti-apoptotic proteins Bcl-2, Mcl-1 (Western Blot)", "setting": "[1]; [3]", "result": "down-regulation of anti-apoptotic proteins"}, {"measurement": "caspase-3 cleavage (Western Blot)", "setting": "[1]; [3]", "result": "caspase-3 cleavege"}, {"measurement": "p-AKT and p-ERK (phosphorylated/active forms, Western Blot)", "setting": "[1]; [3]", "result": "reduction of the phopshorylated / active forms"}, {"measurement": "pro-apoptotic proteins Puma, Bak, Bax, Bid and Bim (Western Blot)", "setting": "[1]; [3]", "result": "up-regulation of pro-apototic proteins"}, {"measurement": "PTEN protein level (Western Blot)", "setting": "[1]; NCI-H929, 6 days gymnotic exposure, 2,5 μM, vs scrambled controls", "result": "strong up-regulation"}, {"measurement": "p14/ARF-p53 fail-safe axis (Western Blot)", "setting": "[1]; p53-wild-type NCI-H929, 6 days gymnotic exposure, 2,5 μM", "result": "triggers the p14/ARF-p53 fail-safe axis"}, {"measurement": "apoptosis (AnnexinV/7-AAD staining)", "setting": "[2]", "result": "increased apoptosis"}]}
